Values after ≈ are worked out from the molar mass of the structure shown.
Key:
[1] = system: Vesicular stomatitis virus; assay: Inhibitory concentration required to reduce virus -induced cytopathicity (VSV); format: functional, organism-based
Measles morbillivirus = assay: Inhibitory concentration required to reduce virus Plaque formation (measles); format: functional, organism-based
Vero [2] = assay: Cytotoxic concentration required to reduce the number of Vero cells by 50%; format: cell-based; conditions: Chlorocebus sabaeus
Mumps virus = assay: Inhibitory concentration required to reduce virus Plaque formation (mumps); format: functional, organism-based; conditions: Mumps orthorubulavirus
MOLT-4 = assay: Antiviral and cytostatic effects againstTK-VZV virus expressed in MOLT-4 cells; format: functional, cell-based; conditions: Homo sapiens
HEL [3] = assay: Antiviral and cytostatic effects against VZV(Oka,YS) virus expressed in HEL cells; format: functional, cell-based; conditions: Homo sapiens
CCRF-CEM = assay: Antiviral and cytostatic effects againstTK-VZV virus expressed in CEM cells; format: functional, cell-based; conditions: Homo sapiens
Vero [4] = assay: Antiviral and cytostatic effects against forest virus expressed in Vero cells; format: functional, cell-based; conditions: Chlorocebus sabaeus
Vero [5] = assay: Antiviral and cytostatic effects against Tacaribe virus expressed in Vero cells; format: functional, cell-based; conditions: Chlorocebus sabaeus
Vero [6] = assay: Antiviral and cytostatic effects against Junin virus expressed in Vero cells; format: functional, cell-based; conditions: Chlorocebus sabaeus
Vero [7] = assay: Antiviral and cytostatic effects against Sindbis virus expressed in Vero cells; format: functional, cell-based; conditions: Chlorocebus sabaeus
E6SM [8] = assay: Antiviral and cytostatic effects againstTK-VZV virus expressed in E6SM cells; format: functional, cell-based; conditions: Homo sapiens
Vero [9] = assay: Antiviral and cytostatic effects againstTK-VZV virus expressed in Vero cells; format: functional, cell-based; conditions: Chlorocebus sabaeus
HeLa [10] = assay: Antiviral and cytostatic effects againstTK-VZV virus expressed in Hela cells; format: functional, cell-based; conditions: Homo sapiens
E6SM [11] = assay: Antiviral and cytostatic effects against Hsv-1(KOS) virus expressed in E6SM cells; format: functional, cell-based; conditions: Homo sapiens
E6SM [12] = assay: Antiviral and cytostatic effects against TK HSV-1( B2006) virus expressed in E6SM cells; format: functional, cell-based; conditions: Homo sapiens
HEL [13] = assay: Antiviral and cytostatic effects against TK-VZV virus expressed in HEL cells; format: functional, cell-based; conditions: Homo sapiens
L1210 = assay: Antiviral and cytostatic effects againstTK-VZV virus expressed in L1210 cells; format: functional, cell-based; conditions: Mus musculus
Vero [14] = assay: Antiviral and cytostatic effects against Reo-1 virus expressed in Vero cells; format: functional, cell-based; conditions: Chlorocebus sabaeus
E6SM [15] = assay: Antiviral and cytostatic effects against CMV (Davis) virus expressed in […]; format: functional, cell-based; conditions: Homo sapiens
HeLa [16] = assay: Antiviral and cytostatic effects against VSV virus expressed in Hela cells; format: functional, cell-based; conditions: Homo sapiens
E6SM [17] = assay: Antiviral and cytostatic effects against VSV virus expressed in E6SM cells; format: functional, cell-based; conditions: Homo sapiens
E6SM [18] = assay: Antiviral and cytostatic effects against Hsv-2(G) virus expressed in E6SM cells; format: functional, cell-based; conditions: Homo sapiens
HeLa [19] = assay: Antiviral and cytostatic effects against Coxsackie B4 virus expressed in HeLa cells; format: functional, cell-based; conditions: Homo sapiens
Vero [20] = assay: Antiviral and cytostatic effects against Parainfluenza-3 virus expressed in Vero cells; format: functional, cell-based; conditions: Chlorocebus sabaeus
E6SM [21] = assay: Antiviral and cytostatic effects against VV virus expressed in E6SM cells; format: functional, cell-based; conditions: Homo sapiens
HEL [22] = assay: Antiviral and cytostatic effects againstTK-VZV virus expressed in HEL cells; format: functional, cell-based; conditions: Homo sapiens
FM3A = assay: Antiviral and cytostatic effects againstTK-VZV virus expressed in FM3A cells; format: functional, cell-based; conditions: Mus musculus
HeLa [23] = assay: Antiviral and cytostatic effects against Polio-1 virus expressed in Hela cells; format: functional, cell-based; conditions: Homo sapiens
HEL [24] = assay: Antiviral and cytostatic effects against CMV (AD-169) virus expressed in HEL cells; format: functional, cell-based; conditions: Homo sapiens

## C[C@H](O)C1=C[C@@H](n2cnc3c(N)ncnc32)[C@H](O)[C@@H]1O
[1]
  IC50: 0.25 µg/mL (≈ 0.902 µM)
Measles morbillivirus
  IC50: 0.09 µg/mL (≈ 0.325 µM)
Vero [2]
  IC50: > 200 µg/mL
Mumps virus
  IC50: 0.19 µg/mL (≈ 0.685 µM)

## Nc1ncnc2c1ncn2[C@@H]1C=C[C@@H](O)[C@H]1O
[1]
  IC50: 1 µg/mL (≈ 4.29 µM)
Measles morbillivirus
  IC50: 0.47 µg/mL (≈ 2.02 µM)
Vero [2]
  IC50: > 200 µg/mL
Mumps virus
  IC50: 1.1 µg/mL (≈ 4.72 µM)

## Nc1ncnc2c1ncn2[C@@H]1C=C(CO)[C@@H](O)[C@H]1O [NEOPLANOCIN A]
MOLT-4
  IC50: 2.34 µg/mL (≈ 8.89 µM)
HEL [3]
  IC50: 10 µg/mL (≈ 38 µM)
CCRF-CEM
  IC50: 1.12 µg/mL (≈ 4.25 µM)
Vero [4]
  IC50: > 40 µg/mL
Vero [5]
  IC50: 1.5 µg/mL (≈ 5.7 µM)
Vero [6]
  IC50: 0.5 µg/mL (≈ 1.9 µM)
Vero [7]
  IC50: 7 µg/mL (≈ 26.6 µM)
[1]
  IC50: 0.25 µg/mL (≈ 0.95 µM)
E6SM [8]
  IC50: 70 µg/mL (≈ 266 µM)
Vero [9]
  IC50: 40 µg/mL (≈ 152 µM)
HeLa [10]
  IC50: 40 µg/mL (≈ 152 µM)
E6SM [11]
  IC50: 70 µg/mL (≈ 266 µM)
Measles morbillivirus
  IC50: 0.1 µg/mL (≈ 0.38 µM)
E6SM [12]
  IC50: 20 µg/mL (≈ 76 µM)
HEL [13]
  IC50: 9 µg/mL (≈ 34.2 µM)
Vero [2]
  IC50: 155 µg/mL (≈ 589 µM)
L1210
  IC50: 0.027 µg/mL (≈ 0.103 µM)
Vero [14]
  IC50: 0.7 µg/mL (≈ 2.66 µM)
E6SM [15]
  IC50: 0.4 µg/mL (≈ 1.52 µM)
Mumps virus
  IC50: 0.11 µg/mL (≈ 0.418 µM)
HeLa [16]
  IC50: 2 µg/mL (≈ 7.6 µM)
E6SM [17]
  IC50: 7 µg/mL (≈ 26.6 µM)
E6SM [18]
  IC50: > 40 µg/mL
HeLa [19]
  IC50: > 40 µg/mL
Vero [20]
  IC50: 2 µg/mL (≈ 7.6 µM)
E6SM [21]
  IC50: 0.7 µg/mL (≈ 2.66 µM)
HEL [22]
  IC50: > 20 µg/mL
FM3A
  IC50: 0.022 µg/mL (≈ 0.0836 µM)
HeLa [23]
  IC50: > 40 µg/mL

## C[C@H](O)C1=C[C@@H](n2cnc3c(N)nc(F)nc32)[C@H](O)[C@@H]1O
[1]
  IC50: 16 µg/mL (≈ 54.2 µM)
Measles morbillivirus
  IC50: > 25 µg/mL
Vero [2]
  IC50: > 200 µg/mL
Mumps virus
  IC50: 7 µg/mL (≈ 23.7 µM)

## Nc1nc(F)nc2c1ncn2[C@@H]1C=C(CO)[C@@H](O)[C@H]1O
MOLT-4
  IC50: 0.5 µg/mL (≈ 1.78 µM)
HEL [3]
  IC50: 10 µg/mL (≈ 35.6 µM)
CCRF-CEM
  IC50: 1.75 µg/mL (≈ 6.22 µM)
Vero [4]
  IC50: > 100 µg/mL
HEL [24]
  IC50: 1.5 µg/mL (≈ 5.33 µM)
Vero [5]
  IC50: 0.7 µg/mL (≈ 2.49 µM)
Vero [6]
  IC50: 0.6 µg/mL (≈ 2.13 µM)
Vero [7]
  IC50: 1 µg/mL (≈ 3.56 µM)
[1]
  IC50: 0.25 µg/mL (≈ 0.889 µM)
E6SM [8]
  IC50: 40 µg/mL (≈ 142 µM)
Vero [9]
  IC50: 100 µg/mL (≈ 356 µM)
HeLa [10]
  IC50: 100 µg/mL (≈ 356 µM)
E6SM [11]
  IC50: > 40 µg/mL
Measles morbillivirus
  IC50: 0.03 µg/mL (≈ 0.107 µM)
E6SM [12]
  IC50: > 40 µg/mL
HEL [13]
  IC50: 7 µg/mL (≈ 24.9 µM)
Vero [2]
  IC50: > 200 µg/mL
L1210
  IC50: 0.25 µg/mL (≈ 0.889 µM)
Vero [14]
  IC50: 0.7 µg/mL (≈ 2.49 µM)
E6SM [15]
  IC50: > 5 µg/mL
Mumps virus
  IC50: 1.2 µg/mL (≈ 4.27 µM)
HeLa [16]
  IC50: 0.4 µg/mL (≈ 1.42 µM)
E6SM [17]
  IC50: 1 µg/mL (≈ 3.56 µM)
E6SM [18]
  IC50: > 40 µg/mL
HeLa [19]
  IC50: > 100 µg/mL
Vero [20]
  IC50: 2 µg/mL (≈ 7.11 µM)
E6SM [21]
  IC50: 0.1 µg/mL (≈ 0.356 µM)
HEL [22]
  IC50: 2 µg/mL (≈ 7.11 µM)
FM3A
  IC50: 0.19 µg/mL (≈ 0.676 µM)
HeLa [23]
  IC50: > 40 µg/mL

## Nc1nc(Cl)nc2c1ncn2[C@@H]1C=C(CO)[C@@H](O)[C@H]1O
[1]
  IC50: 63 µg/mL (≈ 212 µM)
Measles morbillivirus
  IC50: 29 µg/mL (≈ 97.4 µM)
Vero [2]
  IC50: > 200 µg/mL
Mumps virus
  IC50: > 25 µg/mL

## Nc1nc(F)nc2c1ncn2[C@@H]1C=C[C@@H](O)[C@H]1O
Measles morbillivirus
  IC50: > 25 µg/mL
Vero [2]
  IC50: > 200 µg/mL
Mumps virus
  IC50: 21 µg/mL (≈ 83.6 µM)

## Nc1nc(Cl)nc2c1ncn2[C@@H]1C=C[C@@H](O)[C@H]1O
Measles morbillivirus
  IC50: > 25 µg/mL
Vero [2]
  IC50: > 200 µg/mL
Mumps virus
  IC50: > 25 µg/mL
